The values that follow come from ChEMBL document CHEMBL5356978 (Bioorg Med Chem Lett, 2024).

Calls of active or inactive are those of the source. The calls are words filed in the database; no cut-off is given here.

The target of data set [1] is T1, beta-catenin-B-cell lymphoma 9 protein complex (Homo sapiens, UniProt P35222).
T1 sequence (P35222 whole entry): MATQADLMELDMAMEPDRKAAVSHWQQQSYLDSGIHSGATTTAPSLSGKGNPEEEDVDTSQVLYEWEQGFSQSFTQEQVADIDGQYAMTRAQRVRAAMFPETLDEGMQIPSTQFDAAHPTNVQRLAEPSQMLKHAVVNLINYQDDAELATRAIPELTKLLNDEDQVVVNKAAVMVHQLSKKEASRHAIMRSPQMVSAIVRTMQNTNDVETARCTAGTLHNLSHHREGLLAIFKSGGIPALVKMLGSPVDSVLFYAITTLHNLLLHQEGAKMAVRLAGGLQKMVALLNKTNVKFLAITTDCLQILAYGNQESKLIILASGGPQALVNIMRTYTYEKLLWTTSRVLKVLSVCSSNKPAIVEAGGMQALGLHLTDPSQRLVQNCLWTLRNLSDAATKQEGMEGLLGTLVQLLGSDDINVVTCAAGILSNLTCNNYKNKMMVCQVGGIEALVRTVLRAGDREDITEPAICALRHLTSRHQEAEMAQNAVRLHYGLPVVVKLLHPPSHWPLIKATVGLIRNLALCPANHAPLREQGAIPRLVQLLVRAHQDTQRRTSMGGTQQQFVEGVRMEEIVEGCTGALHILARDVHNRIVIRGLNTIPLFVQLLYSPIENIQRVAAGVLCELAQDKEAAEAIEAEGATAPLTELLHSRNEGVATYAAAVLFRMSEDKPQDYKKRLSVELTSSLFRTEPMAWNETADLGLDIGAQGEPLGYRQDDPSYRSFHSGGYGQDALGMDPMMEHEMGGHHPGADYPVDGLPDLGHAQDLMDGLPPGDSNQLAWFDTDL
T1 sequence (O00512 whole entry): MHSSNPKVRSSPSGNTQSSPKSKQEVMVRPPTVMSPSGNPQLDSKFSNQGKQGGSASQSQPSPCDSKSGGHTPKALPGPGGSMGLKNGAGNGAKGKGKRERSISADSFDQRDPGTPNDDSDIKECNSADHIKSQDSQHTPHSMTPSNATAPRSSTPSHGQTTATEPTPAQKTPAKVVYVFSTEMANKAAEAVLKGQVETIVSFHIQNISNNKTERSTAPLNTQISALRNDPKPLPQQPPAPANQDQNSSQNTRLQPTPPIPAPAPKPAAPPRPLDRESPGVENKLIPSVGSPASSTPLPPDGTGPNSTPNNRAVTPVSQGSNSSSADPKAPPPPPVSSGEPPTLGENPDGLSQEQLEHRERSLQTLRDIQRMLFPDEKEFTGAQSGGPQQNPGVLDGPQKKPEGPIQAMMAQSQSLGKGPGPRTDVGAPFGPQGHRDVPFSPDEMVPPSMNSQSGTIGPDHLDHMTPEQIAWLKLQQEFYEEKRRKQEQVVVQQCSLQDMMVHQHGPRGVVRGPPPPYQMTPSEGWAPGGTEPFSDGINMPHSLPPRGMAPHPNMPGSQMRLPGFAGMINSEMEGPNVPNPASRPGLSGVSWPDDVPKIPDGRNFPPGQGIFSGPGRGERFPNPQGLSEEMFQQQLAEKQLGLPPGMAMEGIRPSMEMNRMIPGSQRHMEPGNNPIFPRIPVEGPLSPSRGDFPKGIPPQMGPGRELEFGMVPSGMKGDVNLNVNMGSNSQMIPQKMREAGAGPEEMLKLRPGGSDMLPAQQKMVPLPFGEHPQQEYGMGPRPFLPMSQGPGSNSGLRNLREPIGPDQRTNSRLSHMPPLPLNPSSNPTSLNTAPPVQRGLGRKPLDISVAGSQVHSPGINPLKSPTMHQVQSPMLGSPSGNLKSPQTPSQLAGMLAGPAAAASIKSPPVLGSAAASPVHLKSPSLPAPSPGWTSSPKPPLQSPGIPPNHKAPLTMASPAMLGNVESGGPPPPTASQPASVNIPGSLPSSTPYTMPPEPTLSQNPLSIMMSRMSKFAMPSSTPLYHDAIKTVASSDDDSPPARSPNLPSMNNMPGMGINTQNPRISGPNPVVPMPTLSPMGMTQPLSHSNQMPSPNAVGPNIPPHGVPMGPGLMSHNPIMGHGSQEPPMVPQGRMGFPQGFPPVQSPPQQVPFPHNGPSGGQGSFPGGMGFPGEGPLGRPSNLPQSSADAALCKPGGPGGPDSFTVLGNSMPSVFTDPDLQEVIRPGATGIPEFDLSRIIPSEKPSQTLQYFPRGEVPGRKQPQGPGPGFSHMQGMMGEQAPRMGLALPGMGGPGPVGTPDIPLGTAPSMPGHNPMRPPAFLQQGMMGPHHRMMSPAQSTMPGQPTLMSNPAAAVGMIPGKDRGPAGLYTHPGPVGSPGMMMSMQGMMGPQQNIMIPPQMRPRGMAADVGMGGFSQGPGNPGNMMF
The data set is described as follows: Inhibition of full length beta-catenin (unknown origin)/FAM labeled BCL9 (350 to 375 residues) (unknown origin) protein-protein interaction by competitive FP assay. Format: protein-complex assay.

Data set [2] is described as follows: Inhibition of Wnt/beta-catenin signaling pathway in mouse CT26 cells assessed as downregulation of AXIN2 expression incubated for 24 hrs by qPCR analysis. The settings on record: CT26, 24 h. Background: Quantitative PCR measures a nucleic acid by following its amplification.
The subject of data set [3] is CT26. As to the kind of experiment: Antiproliferative activity against mouse CT26 cells harboring active Wnt/beta-catenin signal assessed as inhibition of cell proliferation by CCK8 assay.
The subject of the next data set is HCT-116. As to the kind of experiment: Antiproliferative activity against human HCT-116 cells assessed as inhibition of cell proliferation by CCK8 assay. (Formazan colour is commonly taken as a measure of viable cells.)
The nature of data set [4]: Inhibition of Wnt/beta-catenin signaling transactivation in human HCT-116 cells assessed as reduction in downstream nuclear transcription ability by TCF/LEF reporter assay.
In data set [5] the test system is CT26. The data set is described as follows: Induction of apoptosis in mouse CT26 cells at 5 uM incubated for 24 hrs by annexin V-FITC/PI staining based flow cytometry analysis relative to control. The format is functional. (In general: In flow cytometry, cells or beads pass a laser one at a time.)
In data set [6] the test system is CT26. As to the kind of experiment: Induction of apoptosis in mouse CT26 cells at 20 uM incubated for 24 hrs by annexin V-FITC/PI staining based flow cytometry analysis relative to control. Format: functional.
The subject of data set [7] is CT26. As to the kind of experiment: Antimigratory activity in mouse CT26 cells assessed as reduction in cell migration incubated for 24 hrs by transwell assay. The format is functional, cell-based. The settings on record: dose 5-20 µM.
In data set [8] the test system is CT26. As to the kind of experiment: Antitumor activity against mouse CT26 cells implanted in mouse assessed as tumor growth inhibition at 15 mg/kg, ip administered for 7 days relative to control. The format is functional. The settings on record: CT26, 168 h, time 7 day, read-out: TGI.
Data set [9] can be described thus: Toxicity in mouse implanted with mouse CT26 cells assessed as reduction in body weight at 15 mg/kg, ip administered for 7 days and measured for 11 days. The settings on record: in vivo, 168 h, time 7 day. The format is organism-based.
A short description of another data set: cells. The settings on record: Homo sapiens, HCT-116, 24 h.
Data set [10] relates to CT26. The data set is described as follows: Induction of apoptosis in mouse CT26 cells assessed as increase in late apoptotic cells at 5 to 20 uM incubated for 24 hrs by annexin V-FITC/PI staining based flow cytometry analysis. Format: functional, cell-based. The settings on record: dose 5-20 µM.
The nature of data set [11]: […] Colorectal cancer cells (unknown origin) assessed as regulation of immune microenvironment by measuring granzyme B positive cells at 5 to 10 uM incubated for 24 hrs by flow cytometry analysis (reference value: 16.2%). Format: functional. Details: scale not given: the % may be the effect or the level left. The settings on record: dose 5-10 µM.

The test system of data set [12] is CT26. As to the kind of experiment: Antitumor activity against mouse CT26 cells implanted in mouse assessed as reduction in tumor size at 15 mg/kg, ip administered for 7 days. The settings on record: time 7.0 day. The format is functional, organism-based.

Description for cells: Inhibition of Wnt pathway in human HCT-116 cells assessed as inhibition of Auxin2 expression incubated for 24 hrs by qPCR analysis

One may read the IC50 as the concentration needed to halve the response being measured. As to `O=c1c(O)c(-c2ccc(O)c(O)c2)oc2c(-c3ccccc3)c(O)cc(O)c12`, the values for the half-inhibitory concentration (IC50) (in data set [1]; in data set [2]; in the data set with CT26 [3]) were 3.83 µM, 1.31 µM and 3.32 µM, respectively.

Turning to `O=c1c(O)c(-c2ccc(O)c(O)c2)oc2cc(O)cc(O)c12` [QUERCETIN], the half-maximal inhibitory concentration (IC50) in [2] worked out at 7.7 µM; in the data set with HCT-116 it was 11.4 µM; in [4] it was 4.87 µM; in the data set “cells” it was 9.95 µM. Further, the Activity was 17.36% in the data set on CT26 [5], 23.89% in the data set with CT26 [6], “Dose-Dependent Effect” in the data set on CT26 [7] and “Non-Toxic” in data set [9]. In addition, in the data set on CT26 [8], the inhibition in vivo at 15 mg/kg turned out to be 43.1%.

With `O=c1c(O)c(-c2ccc(O)c(O)c2)oc2c(-c3ccc(F)c(F)c3)c(O)cc(O)c12`, the IC50 in data set [1] turned out to be 3.15 µM; in [2] it was 1.45 µM; with CT26 [3] it was 7.1 µM.

Turning to `Cc1ccc(-c2c(O)cc(O)c3c(=O)c(O)c(-c4ccc(O)c(O)c4)oc23)cc1`, the concentration for half-maximal inhibition (IC50) in data set [2] was found to be 0.76 µM; in the data set on CT26 [3], 1.69 µM; in the data set on HCT-116, 1.7 µM; in data set [4] it was 0.76 µM; in the data set “cells”, 4.02 µM. Moreover, the Activity in the data set with CT26 [5] is 29.11%; with CT26 [6], 34.03%; in the data set on CT26 [7] it was “Dose-Dependent Effect”; in data set [11] it was 44.5%; in data set [9], “Non-Toxic”. The result with CT26 [10] and in the data set on CT26 [12] was Active. Besides, the inhibition in vivo at 15 mg/kg with CT26 [8] was 76%.

`COc1ccc(-c2c(OC)cc(OC)c3c(=O)c(OC)c(-c4ccc(OC)c(OC)c4)oc23)cc1`: the IC50 in data set [1] amounted to 17.3 µM; in [2], 1.14 µM; with CT26 [3] it was 27.8 µM.

Turning to `COc1ccc(-c2oc3c(-c4ccncc4)c(OC)cc(OC)c3c(=O)c2OC)cc1OC`, the IC50 turned out to be 2.75 µM in [1], 3.1 µM in data set [2] and 14.2 µM in the data set with CT26 [3].

Take `COc1ccc(-c2oc3c(-c4ccc(F)c(F)c4)c(OC)cc(OC)c3c(=O)c2OC)cc1OC`: the concentration for half-maximal inhibition (IC50) in data set [1] stood at 5.78 µM; in [2] it was 12 µM; in the data set on CT26 [3] it was 32.1 µM.

In the case of `COC(=O)c1ccc(-c2c(O)cc(O)c3c(=O)c(O)c(-c4ccc(O)c(O)c4)oc23)cc1`, the results for the IC50 (in data set [1]; in data set [2]; with CT26 [3]) were 2.99 µM, 5.05 µM and 15.1 µM, respectively.

Regarding `COc1ccc(-c2oc3c(-c4ccc(C(=O)O)cc4)c(OC)cc(OC)c3c(=O)c2OC)cc1OC`, the IC50 in data set [1] was found to be 4.52 µM; in data set [2] it was 10.4 µM; in the data set on CT26 [3], 14.1 µM.

Take `COc1ccc(-c2oc3c(-c4ccc(C)cc4)c(OC)cc(OC)c3c(=O)c2OC)cc1OC`: the concentration for half-maximal inhibition (IC50) in data set [1] was found to be 5.24 µM; in data set [2] it was 1.97 µM; in the data set with CT26 [3] it was 11.4 µM.

On to `COc1ccc(-c2oc3c(-c4ccc(C(F)(F)F)cc4)c(OC)cc(OC)c3c(=O)c2OC)cc1OC`, for which the values for the 50% inhibitory concentration (IC50) (in data set [1]; in [2]; with CT26 [3]) were 8.81 µM, 9.2 µM and 16.2 µM, respectively.

As to `COc1ccc(-c2oc3c(C4=CCNCC4)c(OC)cc(OC)c3c(=O)c2OC)cc1OC`, the half-inhibitory concentration (IC50) was found to be 8.92 µM in data set [1], 1.06 µM in data set [2] and 12.9 µM with CT26 [3].

In the case of `COC(=O)c1ccc(-c2c(OC)cc(OC)c3c(=O)c(OC)c(-c4ccc(OC)c(OC)c4)oc23)cc1`, the concentration for half-maximal inhibition (IC50) was found to be 7.64 µM in data set [1], 12 µM in data set [2] and 16 µM in the data set on CT26 [3].

On to `O=c1c(O)c(-c2ccc(O)c(O)c2)oc2c(-c3ccc(F)cc3)c(O)cc(O)c12`, for which the half-inhibitory concentration (IC50) in data set [1] turned out to be 2.35 µM; in data set [2], 0.8 µM; with CT26 [3], 3.32 µM.

Take `COc1ccc(-c2oc3c(C4CC4)c(OC)cc(OC)c3c(=O)c2OC)cc1OC`: the concentration for half-maximal inhibition (IC50) is 20 µM in [1], 2.04 µM in data set [2] and 3.39 µM in the data set with CT26 [3].

`COc1ccc(-c2oc3c(Nc4ccccc4)c(OC)cc(OC)c3c(=O)c2OC)cc1OC`: the IC50 was found to be 16.2 µM in data set [1], 1.09 µM in [2] and 2.49 µM with CT26 [3].

Consider `COc1ccc(-c2oc3c(-c4ccccc4)c(OC)cc(OC)c3c(=O)c2OC)cc1OC`, for which the IC50 was found to be 12.1 µM in [1], 1.11 µM in [2] and 15.1 µM in the data set with CT26 [3].

With `COc1ccc(-c2oc3c(-c4ccc(F)cc4)c(OC)cc(OC)c3c(=O)c2OC)cc1OC`, the concentration for half-maximal inhibition (IC50) came out at 6.93 µM in [1], 4.57 µM in [2] and 19.8 µM with CT26 [3].
